# Results taken from ChEMBL document CHEMBL6114967, “Design and synthesis of novel sulfur-substituted triptolide with the ability to induce autophagy through inhibition of SRSF1 expression” (Eur J Med Chem, 2025).
# Activity calls are given as the source filed them. No cut-off for these calls is given here.
# Legend:
# MCF7 = experiment: Antiproliferative activity against human MCF7 cells assessed as inhibition of cell proliferation incubated for 72 hrs by MTT assay; assay type: functional, cell-based; settings: MCF7, 72 h
# U-251 = experiment: Antiproliferative activity against human U-251 cells assessed as inhibition of cell proliferation incubated for 72 hrs by MTT assay; assay type: functional, cell-based; settings: U-251, 72 h
# HGC-27 [1] = experiment: Induction of apoptosis in human HGC-27 cells assessed as early apoptotic cells at 1 uM incubated for 48 hrs by annexin V-FITC and PI staining based flow cytometry analysis (reference value: 3.13%); assay type: functional
# HGC-27 [2] = experiment: Induction of apoptosis in human HGC-27 cells assessed as necrotic cells at 2 uM incubated for 48 hrs by annexin V-FITC and PI staining based flow cytometry analysis (reference value: 0.062%); assay type: functional
# AGS = experiment: Induction of apoptosis in human AGS cells assessed as increase in cleaved PARP expression at 0.5 to 2 uM incubated overnight by Western blotting analysis; assay type: functional, cell-based; settings: dose 0.5-2 µM
# HGC-27 [3] = experiment: Induction of autophagy in human HGC-27 cells assessed as upregulation of ATG5 protein level at 0.5 to 2 uM incubated for 48 hrs by Western blotting analysis; assay type: functional, cell-based; settings: dose 0.5-2 µM
# HGC-27 [4] = experiment: Induction of autophagy in human HGC-27 cells assessed as upregulation of LC3 I protein level at 0.5 to 2 uM incubated for 48 hrs by Western blotting analysis; assay type: functional, cell-based; settings: dose 0.5-2 µM
# HGC-27 [5] = experiment: Induction of autophagy in human HGC-27 cells assessed as downregulation of P62 protein level at 0.5 to 2 uM incubated for 48 hrs by Western blotting analysis; assay type: functional, cell-based; settings: dose 0.5-2 µM
structure (smiles),measurement,setting,value
CC(C)[C@]12O[C@H]1[C@@H]1O[C@]13[C@]1(O[C@H]1C[C@H]1C4=C(CC[C@@]13C)C(=S)OC4)[C@@H]2O,IC50,MCF7,760 nM
same,IC50,U-251,1620 nM
same,Activity,HGC-27 [1],6.12%
same,Activity,HGC-27 [2],0.16%
same,Activity,AGS,Active
same,Activity,HGC-27 [3],Active
same,Activity,HGC-27 [4],Active
same,Activity,HGC-27 [5],Active
